# Laboratory results: US20220002429A1, “TUMOR CELL AGGREGATION INHIBITORS' FOR TREATING CANCER” (Northwestern University, priority 2018, published 2022)
# Residues, ends and D or L forms follow the SMILES beside them. *: point of attachment. Cbz = O=C(OCc1ccccc1)*
# Columns and labels:
# [1] = test system: TN1 PDX tumor cells; assay: ex vivo aggregation (clustering) assay of dissociated PDX tumor cells, IncuCyte time-lapse imaging; format: cell-based, human
# Method: Cell clustering assay. Freshly dissociated primary tumor cells in single cell suspension were seeded in collagen type I-coated 96-well plates. The plates were put into the IncuCyte live cell imaging system (Essen BioScience), and live images were taken every 2-4 h for up to one week. The cluster number and size were analyzed by Incucyte ZOOM software (Essen BioScience). In specific experiments, primary tumor cells might be sorted based on the expression of CD44 prior to seeding. In other experiments, seeded tumor cells might be transfected with siRNAs (100 nM) or treated with various inhibitors during the clustering assays. For cell viability analysis during clustering, the IncuCyte Cytotox Red reagent (Essen BioScience) was added to the medium according to the manufacturer's instructions.
# [2] = test system: MDA-MB-231 cells; assay: orthotopic breast tumor model: primary tumor, spontaneous lung metastasis and blood CTC clusters; format: in vivo, mice
# Description: FIG. 21. Inhibition of EGFR blocks spontaneous metastasis. A. Timeline of treatment after palpable tumor formation in PDX model TN1. B. Bioluminescent images of tumor growth before or 1, or 17 days after treatment. C. Primary tumor signal over time, ns. D. Tumor images after 2 weeks of treatment. E. Bioluminescent images of lungs after treatment. F. Measured signal of lungs. p=0.09. G. Timeline of treatment of mice with Erlotinib or vehicle for FIGS. 19H-L. H. Bioluminescence images of orthotopically-implanted breast tumors treated with vehicle or 50 mg/kg Erlotinib (daily orally) for 4 weeks. I. BLI signal (total flux) histograms of the lungs from vehicle and Erlotinib-treated breast tumor bearing mice as shown in H. J. Bioluminescence images of dissected lungs from tumor bearing mice treated with vehicle or Erlotinib in C. K. Fluorescence images of dissected lungs from tumor bearing mice treated with vehicle or Erlotinib in C. L. Representative mix-color tumor cell clusters in blood from tumor bearing mice treated with vehicle or Erlotinib in C.
# Inhibition of EGFR successfully blocks clustering and lung colonization. Using flow cytometry, we found enriched EGFR expression in clustered cells in the blood of breast cancer patients (FIG. 25). […] Furthermore, tdTomato- and eGFP-labeled MDA-MB-231 cells were implanted orthotopically together into the mammary fat pads of mice for examination of tumor cell cluster-mediated polyclonal, spontaneous lung metastasis.
# Mouse models and tumor dissociation. 8-10 weeks old NOD/SCIDmice were used for PDXs and human MDA-MB-231 cell-based xenograft studies. The triple negative PDXs and MDA-MB-231 cells were lentivirally labeled by eGFP, tdTomato, Luc2-eGFP (L2G), or Luc2-tdTomato (L2T) using the lentiviruses and labeling protocol as described previously^3. PDX tumors were harvested and dissociated either with Collagenase III (TN1 model) or Liberase TH and TM research grade (TN2 model and lung tissues). Briefly, tumors were minced and incubated for 2-4 h at 37° C. with Collagenase III (Wortington Biomedical) or Liberase TH and TM (Roche) and 100 Kunitz U of DNase I (Sigma) in 20 mL of RPMI medium with 20 mM Hepes buffer. Single-cell suspensions were filtered through 40-μm nylon cell strainers and washed with Hanks' balanced saline solution (HBSS; Sigma) containing 2% heat-inactivated fetal bovine serum (FBS). Red blood cells were lysed with ACK lysis buffer, and dissociated bulk tumor cells were either cultured or stained with various antibodies in HBSS/2% FBS for further flow analysis or sorting on a BD FacsAria (BD Biosciences). […]
# Bioluminescence imaging. […] Signals are presented as total photon flux and analyzed using Living Image 3.0 software (Caliper Life Sciences).
# [3] = test system: phospho-EGFR (Y845); assay: immunoblot of phospho-EGFR (Y845) in siCD44-transfected MDA-MB-231 cells; format: cell-based, human; conditions: siCD44 MDA-MB-231 cells in suspension, inhibitor for 6 hours
# Method: FIG. 23. CD44 promotes EGFR stability and activity in clusters. A. Immunoblots of phospho-EGFR (Y845), EGFR and actin of TN1-PDX tumor cells in clustering assays upon CD44 knockdown for 36 hours. B. Real-time PCR showing no significant (NS) effect of siCD44 on EGFR mRNA levels. Immunoblots of phospho-EGFR (Y845) and total EGFR of MDA-MB-231 cells in suspension for 48 hours after transfected with scramble control (con), siCD44, or siEGFR. D. Immunoblots of phospho-EGFR (Y845) in MDA-MB-231 cells, transfected with siCD44, either adherent (adh) or in suspension in the presence of proteasome inhibitor (MG-132) or endocytosis inhibitor (sucrose) for 6 hours. E. Immunoprecipitation of CD44-FLAG and detection of EGFR by immunoblot.
# Western blot. Cells were lysed by RIPA buffer supplemented with Amresco protease inhibitor cocktail (1:100 diluted) and centrifuged for 10 mins at 4 degrees and 10,000 RPM. Protein concentration was measured and 20 ug of protein was loaded for each sample. Antibodies used: EGFR, p-EGFR, b-actin (abcam).
# [4] = test system: MDA-MB-231 cells; assay: MDA-MB-231 cell aggregation in suspension on Poly-HEMA-coated plates; format: cell-based, human; conditions: 4-MU 0.4 mM/L pre-treatment for 48 h; aggregation at 1 h
# Method: Hyaluronan inhibition. Two complementary approaches were utilized to inhibit hyaluronan, the known CD44 ligand, in the two models. First, for the TN PDX model, dissociated cells were treated with hyaluronan antagonist (o-HA, HA oligomers) at 100 μg/mL during the 72-hour aggregation assays. For MDA-MB-231 cells, the hyaluronic acid synthase inhibitor 4-methylumbelliferone (4-MU, 0.4 mM/L) was added to the adherent culture. After 48 h of treatment, the cells were trypsinized and transferred to a poly-hydroxyethyl methacrylate (Poly-HEMA, Sigma-Aldrich) coated plate, and the images were taken at the indicated times by Leica microscopy.
# Cell clustering assay. Freshly dissociated primary tumor cells in single cell suspension were seeded in collagen type I-coated 96-well plates. The plates were put into the IncuCyte live cell imaging system (Essen BioScience), and live images were taken every 2-4 h for up to one week. The cluster number and size were analyzed by Incucyte ZOOM software (Essen BioScience). In specific experiments, primary tumor cells might be sorted based on the expression of CD44 prior to seeding. In other experiments, seeded tumor cells might be transfected with siRNAs (100 nM) or treated with various inhibitors during the clustering assays. […]
# [5] = Erlotinib 50 mg/kg daily orally for 4 weeks
compound,measurement,setting,value
C#Cc1cccc(Nc2ncnc3cc(OCCOC)c(OCCOC)cc23)c1 [Erlotinib],"PDX-derived tumor cell cluster formation, counts and size","[1]; incubation with Erlotinib (1-10 μM), 72 hours","dramatically reduced PDX-derived tumor cell cluster formation, both the counts and size"
same,primary tumor formation,[2]; [5],no effects on primary tumor formation
same,spontaneous lung metastasis,[2]; [5],significantly and dramatically reduced the spontaneous lung metastasis
same,CTC clusters in dual colors in the blood,[2]; Erlotinib vs vehicle,only detectable in the blood collected from the vehicle-treated mice
same,dual color metastasis colonies in the lungs,[2]; Erlotinib vs vehicle,absent but with reduced single-colored colonies
CCn1c(=O)c(-c2ccc(-c3cncs3)cc2Cl)cc2cnc(Nc3ccc(N4CCN(C)CC4)cc3)nc21 [FRAX597],ex vivo aggregation of TN1 PDX tumor cells (cluster size and number),[1]; FRAX597 500 nM for 72 hours,partially blocked the ex vivo aggregation
CC(C)C[C@@H](C=O)NC(=O)[C@H](CC(C)C)NC(=O)[C@H](CC(C)C)NC(=O)OCc1ccccc1 [MG-132] (Cbz-Leu-Leu-Leu-aldehyde),p-EGFR levels reduced by CD44 knockdown,[3],rescued
OC[C@H]1O[C@@](CO)(O[C@H]2O[C@H](CO)[C@@H](O)[C@H](O)[C@H]2O)[C@@H](O)[C@@H]1O [sucrose],p-EGFR levels reduced by CD44 knockdown,[3],rescued
"Cc1cc(=O)oc2cc(O)ccc12 [4-MU, 4-methylumbelliferone]",aggregation of MDA-MB-231 cells in suspension,[4],did not significantly alter the aggregation
